Assay results: patent publication US20030134859A1 (SANKYO COMPANY, LIMITED, priority 2000, published 2003)

Legend:
TNF-α production = experiment: Inhibitory activity against cytokine (TNF-α) production in LPS-stimulated RAW264.7 cells; format: cell-based, mouse; details: 1 μM test compound, LPS 10 ng/mL; for inhibition at 1 µM: Mus musculus
How it was run: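 Mouse RAW264.7 macrophages (5,000 cells/well) stimulated with 10 ng/mL LPS (final) and treated with test compound at 1 μM final for 15 h at 37 °C. Supernatant mouse TNF-α measured by ELISA; % inhibition = 100−(A−B)/(C−B)×100, using unstimulated and LPS-only controls.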

Rat white adipocytes = experiment: Inhibition of the differentiation of adipocytes (Oil Red O); format: cell-based; details: 100 nM test compound, 5 days, Oil Red O ABS550, control = 100%, blank = 0%, Table 3; for activity at 0.1 µM: Rattus norvegicus, Adipocyte, 120 h, read-out: Rate of Differentiation (%)
How it was run: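 Rat white preadipocytes, 5,000 cells/well, given differentiation medium with compound at 100 nM final (0.1% DMSO) for 5 days at 37 °C. Lipid stained with Oil Red O, eluted in DMSO, read at 550 nm; differentiation % relative to DMSO control (100%) and blank (0%).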

Row | Molecule | inhibition at 1 µM (TNF-α production; RAW264.7, 15 h) [%] | activity at 0.1 µM (Rat white adipocytes) [%] | inhibition at 1 µM (TNF-α production; 15 hr) [%] | Inhibitory Activity (%) against TNF-α production (TNF-α production; 15 hr) [%] | Rate of Differentiation (%) (Rat white adipocytes)
1 | CCCNc1ccc(-c2ccc(NC(=O)c3cc([N+](=O)[O-])ccc3Cl)cc2)cc1 [Example 204, N-[4-[4-(N-Propylamino)phenyl]phenyl]-(2-chloro-5-nitrophenyl)carboxamide] | 32.7 | 38.3 |  |  | 
2 | CCNc1ccc(-c2ccc(NC(=O)c3cc([N+](=O)[O-])ccc3Cl)cc2)cc1 [Example 205, N-[4-[4-(N-Ethylamino)phenyl]phenyl]-(2-chloro-5-nitrophenyl)carboxamide] | 34.9 | 39.8 |  |  | 
3 | CCCCCN(CCCC)c1ccc(-c2ccc(NC(=O)c3cc([N+](=O)[O-])ccc3Cl)cc2)cc1 [Example 206, N-[4-[4-(N-Butyl-N-pentylamino)phenyl]phenyl]-(2-chloro-5-nitrophenyl)carboxamide] | 27.5 | 30.6 |  |  | 
4 | CCCCN(CCCC)c1ccc(-c2ccc(NC(=O)c3cc([N+](=O)[O-])ccc3Cl)cc2)cc1 [Example 207, N-[4-[4-(N,N-Dibutylamino)phenyl]phenyl]-(2-chloro-5-nitrophenyl)carboxamide] | 27.1 | 32.7 |  |  | 
5 | CCCCN(CCC)c1ccc(-c2ccc(NC(=O)c3cc([N+](=O)[O-])ccc3Cl)cc2)cc1 [Example 208, N-[4-[4-(N-Butyl-N-propylamino)phenyl]phenyl]-(2-chloro-5-nitrophenyl)carboxamide] | 26.3 | 35.1 |  |  | 
6 | CCCCN(CC)c1ccc(-c2ccc(NC(=O)c3cc([N+](=O)[O-])ccc3Cl)cc2)cc1 [Example 209, N-[4-[4-(N-Butyl-N-ethylamino)phenyl]phenyl]-(2-chloro-5-nitrophenyl)carboxamide] | 26.9 | 40.1 |  |  | 
7 | CCCN(CC)c1ccc(-c2ccc(NC(=O)c3cc([N+](=O)[O-])ccc3Cl)cc2)cc1 [Example 212, N-[4-[4-(N-Ethyl-N-propylamino)phenyl]phenyl]-(2-chloro-5-nitrophenyl)carboxamide] | 31.2 | 44 |  |  | 
8 | CCCCCN(CCCCC)c1ccc(-c2ccc(NC(=O)c3cc([N+](=O)[O-])ccc3Cl)cc2)cc1 [Example 214, N-[4-[4-(N,N-Dipentylamino)phenyl]phenyl]-(2-chloro-5-nitrophenyl)carboxamide] | 20.1 | 31.7 |  |  | 
9 | CCCCCN(CC)c1ccc(-c2ccc(NC(=O)c3cc([N+](=O)[O-])ccc3Cl)cc2)cc1 [Example 216, N-[4-[4-(N-Ethyl-N-pentylamino)phenyl]phenyl]-(2-chloro-5-nitrophenyl)carboxamide] | 30.6 | 32.1 |  |  | 
10 | CCN(CC)c1ccc(-c2ccc(NC(=O)c3cc([N+](=O)[O-])ccc3Cl)cc2)cc1 [Example 217, N-[4-[4-(N,N-Diethylamino)phenyl]phenyl]-(2-chloro-5-nitrophenyl)carboxamide] | 28.7 | 21 |  |  | 
11 | CCN(C)c1ccc(-c2ccc(NC(=O)c3cc([N+](=O)[O-])ccc3Cl)cc2)cc1 [Example 218, N-[4-[4-(N-Ethyl-N-methylamino)phenyl]phenyl]-(2-chloro-5-nitrophenyl)carboxamide] | 20.3 | 31.7 |  |  | 
12 | O=C(Nc1ccc(-c2ccc(NC(=S)Nc3cccc(F)c3)cc2)cc1)c1cc([N+](=O)[O-])ccc1Cl [Example 245, N-[4-[4-[(3-Fluorophenyl)aminothiocarbonylamino]phenyl]phenyl]-(2-chloro-5-nitrophenyl)carboxamide] | 34.6 | 36.1 |  |  | 
13 | CCOC(=O)NC(=S)Nc1ccc(-c2ccc(NC(=O)c3cc([N+](=O)[O-])ccc3Cl)cc2)cc1 [Example 251, N-[4-[4-(Ethoxycarbonylaminothiocarbonylamino)phenyl]phenyl]-(2-chloro-5-nitrophenyl)carboxamide] | 29 | 39.9 |  |  | 
14 | O=C(Nc1ccc(-c2ccc(NC(=S)Nc3ccccc3)cc2)cc1)c1cc([N+](=O)[O-])ccc1Cl [Example 252, N-[4-[4-(Phenylaminothiocarbonylamino)phenyl]phenyl]-(2-chloro-5-nitrophenyl)carboxamide] | 19.3 | 36.7 |  |  | 
15 | O=C(Nc1ccc(-c2ccc(NC(=O)c3cc([N+](=O)[O-])ccc3Cl)cc2)cc1)Nc1ccccc1[N+](=O)[O-] [Example 254, N-[4-[4-(2-Nitrophenylaminocarbonylamino)phenyl]phenyl]-(2-chloro-5-nitrophenyl)carboxamide] |  | 52.8 | 44.3 |  | 
16 | O=C(NC(=S)NCCc1ccc(NC(=O)c2cc([N+](=O)[O-])ccc2Cl)cc1)c1ccccc1 [Example 271, N-[4-(2-Phenylcarbonylaminothiocarbonylaminoethyl)phenyl]-(2-chloro-5-nitrophenyl)carboxamide] | 25.2 | 45.4 |  |  | 
17 | CCS(=O)(=O)N(c1ccc(-c2ccc(NC(=O)c3cc([N+](=O)[O-])ccc3Cl)cc2)cc1)S(=O)(=O)CC [Example 276, N-[4-[4-(N,N-Diethanesulfonylamino)phenyl]phenyl]-(2-chloro-5-nitrophenyl)carboxamide] | 28.5 | 14.9 |  |  | 
18 | N-[4-(Benzenesulfonylaminophenyl)phenyl]-(2-chloro-5-nitrophenyl)carboxamide [Example 128] |  |  |  | 28.8 | 35.4
